Converted amounts (≈) assume the structure as drawn.
Tests used:
[1] = test system: Black Bean Aphid [Aphis fabae (Scop.)]; test: Black Bean Aphid (BBA) plant spray assay, mortality after three days; format: in vivo; conditions: spray on infested nasturtium plants
Source text: (§1) Screening was initiated at a maximal concentration level believed to be injurious to the insect population. The initial level should not be understood as representing a maximum at which a viable test for insecticidal activity can be conducted. […]
(§2) Nasturtium plants, Tropaeolum sp., approximately five centimeters (cm) high were transplanted into sandy loam soil in three-inch clay pots. Each pot was infested with 25-50 black bean aphids of mixed ages. Twenty-four hours later the pots were sprayed to the point of run-off with 50--50 acetone-water solutions of the test compounds.
(§3) Mortality rates were recorded after the infested plants had been held in the greenhouse for three days. Test concentrations ranged from 0.05% down to that at which 50% mortality occurs. Green Peach Aphid [Myzus persicae (Sulzer)], (GPA)
(§4) A less than 50% mortality rate at the initial concentration is indicated by a "greater than" sign (>). An approximately 50% mortality rate is indicated by the initial concentration rate. Other results are the dilutions at which an LD50 was achieved.

[2] = test system: Southern House Mosquito Larvae (Culex pipiens quinquefasciatus); test: Southern House Mosquito larvae (M) assay, mortality 48 hours after treatment; format: in vivo; conditions: third-instar larvae in aqueous solution, initial 1 ppm, read-out: LD50 M
Description: (§5) Screening was initiated at a maximal concentration level believed to be injurious to the insect population. The initial level should not be understood as representing a maximum at which a viable test for insecticidal activity can be conducted.
Tobacco budworms were tested in the same manner as the cabbage looper. Romaine lettuce (Latuca sativa) leaves provided the substrate. Southern House Mosquito Larvae (Culex pipiens quinquefasciatus), (M)
Ten third-instar larvae were placed in a six ounce wax paper cup containing 100 ml of an aqueous solution of the test compounds at a concentration of 1 ppm. The treated larvae were stored at 70° F. (21.5° C.) and mortality was recorded 48 hours after treatment. Two-Spotted Mite [Tetranychus urticae (Koch)], (2SM)
as §4

[3] = test system: Two-Spotted Mite [Tetranychus urticae (Koch)]; test: Two-Spotted Mite (2SM) plant dip assay, mortality seven days later; format: in vivo; conditions: for LD50 2SM Adults: adult mites; for LD50 2SM Eggs: eggs (nymphs hatching after treatment)
Source text: as §1
Pinto bean plants (Phaseolus vulgaris) approximately 10 cm high were transplanted into sandy loam soil in three-inch clay pots. The plants were thoroughly infested with two-spotted mites of mixed ages and sexes. Twenty-four hours after infestation the plants were inverted and dipped for 2-3 seconds in 50--50 acetone-water solutions of the test compounds.
Mortality ratings for both adult mites and nymphs hatching after treatment were taken seven days later. Test concentrations ranged from 0.05% down to that at which 50% mortality occurs.
as §4

[4] = test system: Housefly [Musca domestica (Linn.)]; conditions: topical, 48 h
Description: Housefly [Musca domestica (Linn.)], (HF)--Contact Residue Assay
Test compounds were diluted in acetone and aliquots were pipetted onto the bottom of 55×15 millimeter (mm) aluminum dishes. One ml of acetone containing 0.02% peanut oil was added to each dish to insure even spreading. After all solvents had evaporated the dishes were placed in cages each containing 25 one to two day old female houseflies. Each cage contained a sugar-water cotton plug for sustanence of the flies.
Mortality rates were recorded after 48 hours. Test levels ranged from 10 μ/25 .female. houseflies down to that at which approximately 50% mortality occurs.

[5] = test system: Tobacco Budworm [Heliothis virescens (Fabricius)]; conditions: leaf dip, Romaine lettuce leaves
Description: Mortality of the larvae was recorded 48 hours later. A piece of synthetic media was added to the dishes containing surviving larvae. […] Test concentrations ranged from 0.05% down to that at which approximately 50% mortality occurs.

[6] = test system: Green Peach Aphid [Myzus persicae (Sulzer)]; test: Green Peach Aphid (GPA) plant spray assay; format: in vivo; conditions: spray on infested radish plants, three days
Source text: as §5, §2, §3
(§6) The insecticidal properties were tested in the same manner as for black beam aphids with the substitution of the nasturtiums by radish plants, Rhaphanus sativus. German Cockroach [Blatella germanica (Linne)], (GR)--Direct Spray
as §4

[7] = test system: German Cockroach [Blatella germanica (Linne)]; test: German Cockroach (GR) direct spray, mortality 7 days later; format: in vivo; conditions: one-month-old nymphs, initial 0.1%
Description: as §5
(§7) Mobile insects, such as houseflies, German cockroaches, Lygus bugs, were contained for treatment in circular cardboard cages covered with cellophane on the bottom and tulle netting on the top.
as §6
(§8) Test compounds were diluted in a 50--50 acetonewater solution. Two cubic centimeters (cc) of the compound solutions were sprayed through a DeVilbiss type EGA hand spray gun into cages each containing 10 one-month-old German cockroach nymphs.
The percent mortality was recorded 7 days later. Test concentrations ranged from 0.1% down to that at which approximately 50% mortality occurs.
as §4

[8] = test system: Lygus Bug [Lygus hesperus (Knight)]; test: Lygus Bug (LB) direct spray assay, mortality 48 hours later; format: in vivo; conditions: adults, initial 0.05%
Description: as §5, §7, §8
Lygus Bug [Lygus hesperus (Knight)], (LB)--Direct Spray Assay
(§9) The species was treated in the same manner as the German cockroach. The cages contained one string beam pod and 10 adult Lygus bugs. The percent mortality was recorded 48 hours later. Test concentrations ranged from 0.05% down to that at which approximately 50% mortality occurs. Saltmarsh Caterpillar [Estigmene acrea (Drury)], (SMC)--Leaf Dip Assay
as §4

[9] = test system: Saltmarsh Caterpillar [Estigmene acrea (Drury)]; test: Saltmarsh Caterpillar (SMC) leaf dip assay; format: in vivo; conditions: curly dock leaves, second-instar larvae, 48 hours + 5 days
Description: as §5, §9
(§10) Test compounds were diluted in a 50--50 acetone-water solution. Approximately 1×1.5 inch sections of curly dock (Rumex crispus) leaves were immersed in the test solution for 2-3 seconds. After drying on a wire screen, the leaves were placed in petri dishes containing a moistened piece of filter paper. Each dish was infested with 5 secondinstar saltmarsh larvae.
(§11) Mortality of the larvae was recorded 48 hours later. A piece of synthetic media was added to the dishes containing surviving larvae. The larvae were then observed for 5 additional days for delayed effects of the test compounds. Test concentrations ranged from 0.05% down to that at which approximately 50% mortality occurs. Cabbage Looper [Trichoplusia ni (Hubner)], (CL)
as §4

[10] = test system: Cabbage Looper [Trichoplusia ni (Hubner)]; test: Cabbage Looper (CL) leaf dip assay; format: in vivo; conditions: squash cotyledons, initial 0.1%
Description: as §5, §10, §11
The effectiveness of the compounds was tested in the same manner as for the saltmarsh caterpillar with two exceptions. Cotyledons of hyzini squash (Calabacita abobrinha, were substituted for curly dock leaves and the initial test concentration was 0.1%. Tobacco Budworm [Heliothis virescens (Fabricius)], (TBW)
as §4

SMILES	LD50 BBA [1]	LC50 [2]	LD50 2SM Adults [3]	LD50 2SM Eggs [3]	LD50 HF [4]	LD50 TBW [5]	LD50 GPA [6]	LD50 GR [7]	LD50 LB [8]	LD50 SMC [9]	LD50 CL [10]
COP(=S)(OC)SCC(=O)N1CCN(C(=O)SC(C)(C)C)CC1C (centres unmarked) [Compound 32, 1-N-carbo-t-butylthio-4-N'-O,O-dimethylphosphorodithioylacetyl-3-methyl piperazine]	> .05%	> 1 µg/mL	> .05%	> .05%	> 10 μg/25	> .05%	–	–	–	–	–
CCOP(=S)(OCC)SCC(=O)N1CCN(C(=O)OC(C)C)CC1 [Compound 19, 1-N-isopropoxycarbo-4-N-O,O-diethylphosphorodithioylacetyl piperazine]	.0006%	> 1 µg/mL	< .05%	< .05%	> 10 μg/25	> .1%	.006%	> .1%	> .05%	> .05%	> .1%
CCOC(=O)N1CCN(C(=O)CSP(=S)(OC)OC)C(C)C1 (centres unmarked) [Compound 11, 1-N-ethoxycarbo-4-N'-O,O-dimethylphosphorodithioylacetyl-3-methyl piperazine]	.002%	1 µg/mL (≈ 2.7 µM)	< .05%	< .05%	> 10 μg/25	.1%	.03%	> .1%	> .05%	.05%	> .1%
CCOP(=S)(OCC)SCC(=O)N1CCN(C(=O)SC)CC1 [Compound 27, 1-N-methylthiocarbo-4-N-O,O-diethylphosphorodithioylacetyl piperazine]	.001%	> 1 µg/mL	< .05%	< .05%	> 10 μg/25	> .1%	.01%	> .1%	> .05%	–	> .1%
CCOP(=O)(OCC)SCC(=O)N1CCN(C(=O)SC)CC1 [Compound 28, 1-N-methylthiocarbo-4-N-O,O-diethylphosphoromonothioylacetyl piperazine]	.0002%	> 1 µg/mL	< .05%	< .05%	> 10 μg/25	> .1%	.008%	> .1%	> .05%	> .05%	> .1%
COP(=S)(OC)SCC(=O)N1CCN(C(=O)OC(C)C)CC1 [Compound 18, 1-N-ispropoxycarbo-4-N-O,O-dimethylphosphorodithioylacetyl piperazine]	.0005%	1 µg/mL (≈ 2.7 µM)	< .05%	< .05%	> 10 μg/25	> .1%	.005%	> .1%	> .05%	> .05%	> .1%
CCOP(=O)(OCC)SCC(=O)N1CCN(C(=O)OC(C)C)CC1 [Compound 20, 1-N-isopropoxycarbo-4-N-O,O-diethylphosphoromonothioylacetyl piperazine]	.0005%	> 1 µg/mL	< .05%	< .05%	> 10 μg/25	.1%	.008%	> .1%	> .05%	> .05%	> .1%
CCOP(=S)(OCC)SCC(=O)N1CCN(C(=O)Oc2ccccc2)CC1 [Compound 23, 1-N-phenyloxycarbo-4-N-O,O-diethylphosphorodithioylacetyl piperazine]	.002%	1 µg/mL (≈ 2.31 µM)	< .05%	< .05%	> 10 μg/25	> .1%	.008%	> .1%	> .05%	–	.1%
CCOC(=O)N1CCN(C(=O)CSP(=O)(OCC)OCC)C(C)C1 (centres unmarked) [Compound 14, 1-N-carboethoxy-4-N'-O,O-diethylphosphoromonothioylacetyl-3-methyl piperazine]	.0005%	> 1 µg/mL	< .05%	< .05%	> 10 μg/25	> .1%	.005%	> .1%	> .05%	–	> .1%
CCOP(=S)(OCC)SCC(=O)N1CCN(C(=O)OC)CC1 [Compound 3, 1-N-methoxycarbo-4-N-O,O-diethylphosphorodithioylacetyl piperazine]	.001%	> 1 µg/mL	< .05%	< .05%	> 10 μg/25	> .1%	.01%	> .1%	> .05%	–	> .1%
CCOP(=S)(OCC)SCC(=O)N1CCN(C(=O)SC(C)(C)C)CC1C (centres unmarked) [Compound 33, 1-N-carbo-t-butylthio-4-N'-O,O-diethylphosphorodithioylacetyl-3-methyl piperazine]	> .005%	–	–	–	> 10 μg/25	> .05%	–	–	–	–	–
CCOC(=O)N1CCN(C(=O)CSP(=S)(OCC)OCC)CC1 [Compound 12, 1-N-ethoxycarbo-4-N-O,O-diethylphosphorodithioylacetyl piperazine]	.001%	> 1 µg/mL	.001%	.002%	> 10 μg/25	> .1%	.008%	> .1%	> .05%	> .05%	> .1%
CCOC(=O)N1CCN(C(=O)CSP(=S)(OC)OC)CC1 [Compound 10, 1-N-ethoxycarbo-4-N-O,O-dimethylphosphorodithioylacetyl piperazine]	.0002%	1 µg/mL (≈ 2.81 µM)	.002%	.005%	> 10 μg/25	> .05%	.002%	> .1%	> .05%	–	> .1%

Source: patent publication US4225595A, “Piperazine phosphates and phosphonate insecticides” (priority 1979, dated 1980)
